Source: PubChem BioAssay AID2060352 (Molecular Pharmacology Branch, DTP, NCI, 2025)

Test system: 616215-338-R-J1-PDC spheroid with HUVEC/MSC, viability
Experiment: Anticancer human tumor 616215-338-R-J1-PDC patient-derived colon adenocarcinoma cell line growth inhibition [TAK]
Details: for IC50: curve of first compound; for viability, T/C: stronger effect = lower value
In short: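 Tumor cells were grown as spheroids with HUVEC and hMSC (60:25:15) and treated with targeted agents combined with TAK-243 or ipatasertib. Drugs were tested in half-log steps down from near the clinical Cmax, or from 10 microM where Cmax was unknown.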

[1] = second compound 0.3 µM, first compound 0.0316 µM
[2] = second compound 0.3 µM, first compound 0.1 µM
[3] = second compound 0.949 µM, first compound 0.0316 µM
[4] = second compound 0.949 µM, first compound 0.1 µM
[5] = second compound 3 µM, first compound 0.0316 µM
[6] = second compound 3 µM, first compound 0.1 µM
[7] = second compound 9.49 µM, first compound 0.0316 µM
[8] = second compound 9.49 µM, first compound 0.1 µM
[9] = second compound 30 µM, first compound 0.0316 µM
[10] = second compound 30 µM, first compound 0.1 µM
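Note: spheroids exposed to drugs for 7 days before readout.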

## CC(C)(C)c1nc(-c2cccc(NS(=O)(=O)c3c(F)cccc3F)c2F)c(-c2ccnc(N)n2)s1 + CC(C)NCC(C(=O)N1CCN(c2ncnc3c2C(C)CC3O)CC1)c1ccc(Cl)cc1
Second compound 0.3 µM
  IC50: 5380 nM
Second compound 0.949 µM
  IC50: 834 nM
Second compound 3 µM
  IC50: 182 nM
Second compound 9.49 µM
  IC50: < 31.6 nM
Second compound 30 µM
  IC50: < 31.6 nM
[1]
  viability, T/C: 130%
[2]
  viability, T/C: 140%
Second compound 0.3 µM, first compound 0.316 µM
  viability, T/C: 156%
Second compound 0.3 µM, first compound 1 µM
  viability, T/C: 138%
Second compound 0.3 µM, first compound 3.16 µM
  viability, T/C: 77.8%
Second compound 0.3 µM, first compound 10 µM
  viability, T/C: 17.5%
[3]
  viability, T/C: 141%
[4]
  viability, T/C: 132%
Second compound 0.949 µM, first compound 0.316 µM
  viability, T/C: 87%
Second compound 0.949 µM, first compound 1 µM
  viability, T/C: 43.1%
Second compound 0.949 µM, first compound 3.16 µM
  viability, T/C: 22%
Second compound 0.949 µM, first compound 10 µM
  viability, T/C: 10.1%
[5]
  viability, T/C: 63.5%
[6]
  viability, T/C: 69%
Second compound 3 µM, first compound 0.316 µM
  viability, T/C: 35.1%
Second compound 3 µM, first compound 1 µM
  viability, T/C: 16.8%
Second compound 3 µM, first compound 3.16 µM
  viability, T/C: 10.3%
Second compound 3 µM, first compound 10 µM
  viability, T/C: 7.4%
[7]
  viability, T/C: 21.2%
[8]
  viability, T/C: 19.9%
Second compound 9.49 µM, first compound 0.316 µM
  viability, T/C: 15.2%
Second compound 9.49 µM, first compound 1 µM
  viability, T/C: 8.91%
Second compound 9.49 µM, first compound 3.16 µM
  viability, T/C: 5.79%
Second compound 9.49 µM, first compound 10 µM
  viability, T/C: 6.27%
[9]
  viability, T/C: 8.84%
[10]
  viability, T/C: 10.3%
Second compound 30 µM, first compound 0.316 µM
  viability, T/C: 7.86%
Second compound 30 µM, first compound 1 µM
  viability, T/C: 6.37%
Second compound 30 µM, first compound 3.16 µM
  viability, T/C: 3.65%
Second compound 30 µM, first compound 10 µM
  viability, T/C: 3.34%

## CC(C)CC(NC(=O)CNC(=O)c1cc(Cl)ccc1Cl)B1OC(=O)CC(CC(=O)O)(C(=O)O)O1 (stereo not given) + CC(C)NCC(C(=O)N1CCN(c2ncnc3c2C(C)CC3O)CC1)c1ccc(Cl)cc1
Second compound 0.3 µM
  IC50: 21 nM
Second compound 0.949 µM
  IC50: 20.7 nM
Second compound 3 µM
  IC50: 14.2 nM
Second compound 9.49 µM
  IC50: < 0.316 nM
Second compound 30 µM
  IC50: < 0.316 nM
Second compound 0.3 µM, first compound 0.000316 µM
  viability, T/C: 115%
Second compound 0.3 µM, first compound 0.001 µM
  viability, T/C: 123%
Second compound 0.3 µM, first compound 0.00316 µM
  viability, T/C: 122%
Second compound 0.3 µM, first compound 0.01 µM
  viability, T/C: 105%
[1]
  viability, T/C: 19.7%
[2]
  viability, T/C: 0.11%
Second compound 0.949 µM, first compound 0.000316 µM
  viability, T/C: 134%
Second compound 0.949 µM, first compound 0.001 µM
  viability, T/C: 136%
Second compound 0.949 µM, first compound 0.00316 µM
  viability, T/C: 132%
Second compound 0.949 µM, first compound 0.01 µM
  viability, T/C: 129%
[3]
  viability, T/C: 4.16%
[4]
  viability, T/C: 0.13%
Second compound 3 µM, first compound 0.000316 µM
  viability, T/C: 78.8%
Second compound 3 µM, first compound 0.001 µM
  viability, T/C: 68.6%
Second compound 3 µM, first compound 0.00316 µM
  viability, T/C: 57.7%
Second compound 3 µM, first compound 0.01 µM
  viability, T/C: 76.5%
[5]
  viability, T/C: 3.6%
[6]
  viability, T/C: 0.77%
Second compound 9.49 µM, first compound 0.000316 µM
  viability, T/C: 23.4%
Second compound 9.49 µM, first compound 0.001 µM
  viability, T/C: 21.8%
Second compound 9.49 µM, first compound 0.00316 µM
  viability, T/C: 23.6%
Second compound 9.49 µM, first compound 0.01 µM
  viability, T/C: 23.7%
[7]
  viability, T/C: 1.97%
[8]
  viability, T/C: 0.97%
Second compound 30 µM, first compound 0.000316 µM
  viability, T/C: 11.2%
Second compound 30 µM, first compound 0.001 µM
  viability, T/C: 9.33%
Second compound 30 µM, first compound 0.00316 µM
  viability, T/C: 10.7%
Second compound 30 µM, first compound 0.01 µM
  viability, T/C: 8.93%
[9]
  viability, T/C: 2.11%
[10]
  viability, T/C: 0.25%
